Experiments:
[1] = target: human Class I PI3 kinase β (Homo sapiens (Human), UniProt P42338); test: PI3-Kinase Promega ADP-Glo Max assay, β isoform; assay type: biochemical; conditions: 40 nM kinase, 3 mM ATP, 500 uM diC8-PtdInsP; read-out: Promega β PI3K IC50
[2] = target: human Class I PI3 kinase α (Homo sapiens (Human), UniProt P42336); test: PI3-Kinase Promega ADP-Glo Max assay, α isoform; assay type: biochemical; conditions: 20 nM kinase, 3 mM ATP, 500 uM diC8-PtdInsP; read-out: Promega α PI3K IC50
Sequence of human Class I PI3 kinase α (P42336 whole entry, canonical isoform): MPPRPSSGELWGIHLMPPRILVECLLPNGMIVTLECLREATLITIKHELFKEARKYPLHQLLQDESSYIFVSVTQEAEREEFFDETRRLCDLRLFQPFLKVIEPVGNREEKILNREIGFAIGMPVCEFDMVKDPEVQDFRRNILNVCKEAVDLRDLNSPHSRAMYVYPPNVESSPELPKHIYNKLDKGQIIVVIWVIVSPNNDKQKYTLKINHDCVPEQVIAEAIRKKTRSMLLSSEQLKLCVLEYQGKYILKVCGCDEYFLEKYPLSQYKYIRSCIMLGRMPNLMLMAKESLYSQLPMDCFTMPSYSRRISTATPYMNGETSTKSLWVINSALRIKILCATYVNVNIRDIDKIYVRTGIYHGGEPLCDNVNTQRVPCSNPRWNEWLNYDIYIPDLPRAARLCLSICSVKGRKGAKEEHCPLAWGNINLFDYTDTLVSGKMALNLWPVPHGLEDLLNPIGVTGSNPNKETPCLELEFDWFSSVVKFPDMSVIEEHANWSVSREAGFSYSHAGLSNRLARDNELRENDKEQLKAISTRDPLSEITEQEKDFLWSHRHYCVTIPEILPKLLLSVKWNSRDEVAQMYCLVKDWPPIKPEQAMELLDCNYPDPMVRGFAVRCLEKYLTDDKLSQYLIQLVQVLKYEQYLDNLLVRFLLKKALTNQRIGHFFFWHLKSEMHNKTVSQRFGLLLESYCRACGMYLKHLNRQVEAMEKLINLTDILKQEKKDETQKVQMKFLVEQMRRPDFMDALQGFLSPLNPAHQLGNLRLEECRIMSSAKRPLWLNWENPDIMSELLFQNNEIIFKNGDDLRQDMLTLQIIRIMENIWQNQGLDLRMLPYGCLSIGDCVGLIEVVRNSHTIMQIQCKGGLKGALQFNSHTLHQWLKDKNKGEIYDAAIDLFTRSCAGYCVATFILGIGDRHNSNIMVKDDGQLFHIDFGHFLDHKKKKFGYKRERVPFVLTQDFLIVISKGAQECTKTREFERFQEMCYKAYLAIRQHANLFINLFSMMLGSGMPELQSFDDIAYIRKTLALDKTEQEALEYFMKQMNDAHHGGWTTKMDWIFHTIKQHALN
Sequence of human Class I PI3 kinase α (P27986 whole entry partner, canonical isoform): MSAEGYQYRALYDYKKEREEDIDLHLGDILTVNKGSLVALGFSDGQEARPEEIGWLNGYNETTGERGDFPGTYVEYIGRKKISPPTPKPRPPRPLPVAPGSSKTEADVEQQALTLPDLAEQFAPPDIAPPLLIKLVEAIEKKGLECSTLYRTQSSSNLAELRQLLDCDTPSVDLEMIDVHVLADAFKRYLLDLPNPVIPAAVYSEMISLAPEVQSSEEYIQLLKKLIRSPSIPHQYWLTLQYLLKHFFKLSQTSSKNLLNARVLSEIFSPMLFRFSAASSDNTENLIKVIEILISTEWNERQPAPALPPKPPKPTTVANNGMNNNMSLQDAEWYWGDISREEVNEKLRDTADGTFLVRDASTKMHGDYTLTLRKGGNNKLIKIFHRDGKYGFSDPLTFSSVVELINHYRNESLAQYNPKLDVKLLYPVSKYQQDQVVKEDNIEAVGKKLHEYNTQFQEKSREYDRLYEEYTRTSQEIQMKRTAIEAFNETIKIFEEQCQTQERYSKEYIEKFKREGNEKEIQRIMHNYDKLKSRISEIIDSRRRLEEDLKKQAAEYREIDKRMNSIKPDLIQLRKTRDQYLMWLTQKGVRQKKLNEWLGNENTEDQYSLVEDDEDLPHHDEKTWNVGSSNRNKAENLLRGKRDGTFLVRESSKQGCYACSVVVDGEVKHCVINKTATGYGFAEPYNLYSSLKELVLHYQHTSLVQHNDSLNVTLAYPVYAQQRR

[3] = target: human Class I PI3 kinase γ (Homo sapiens (Human), UniProt P48736); test: PI3-Kinase Promega ADP-Glo Max assay, γ isoform; assay type: biochemical; conditions: 40 nM kinase, 3 mM ATP, 500 uM diC8-PtdInsP; read-out: Promega γ PI3K IC50
Sequence of human Class I PI3 kinase γ (P48736 whole entry, canonical isoform): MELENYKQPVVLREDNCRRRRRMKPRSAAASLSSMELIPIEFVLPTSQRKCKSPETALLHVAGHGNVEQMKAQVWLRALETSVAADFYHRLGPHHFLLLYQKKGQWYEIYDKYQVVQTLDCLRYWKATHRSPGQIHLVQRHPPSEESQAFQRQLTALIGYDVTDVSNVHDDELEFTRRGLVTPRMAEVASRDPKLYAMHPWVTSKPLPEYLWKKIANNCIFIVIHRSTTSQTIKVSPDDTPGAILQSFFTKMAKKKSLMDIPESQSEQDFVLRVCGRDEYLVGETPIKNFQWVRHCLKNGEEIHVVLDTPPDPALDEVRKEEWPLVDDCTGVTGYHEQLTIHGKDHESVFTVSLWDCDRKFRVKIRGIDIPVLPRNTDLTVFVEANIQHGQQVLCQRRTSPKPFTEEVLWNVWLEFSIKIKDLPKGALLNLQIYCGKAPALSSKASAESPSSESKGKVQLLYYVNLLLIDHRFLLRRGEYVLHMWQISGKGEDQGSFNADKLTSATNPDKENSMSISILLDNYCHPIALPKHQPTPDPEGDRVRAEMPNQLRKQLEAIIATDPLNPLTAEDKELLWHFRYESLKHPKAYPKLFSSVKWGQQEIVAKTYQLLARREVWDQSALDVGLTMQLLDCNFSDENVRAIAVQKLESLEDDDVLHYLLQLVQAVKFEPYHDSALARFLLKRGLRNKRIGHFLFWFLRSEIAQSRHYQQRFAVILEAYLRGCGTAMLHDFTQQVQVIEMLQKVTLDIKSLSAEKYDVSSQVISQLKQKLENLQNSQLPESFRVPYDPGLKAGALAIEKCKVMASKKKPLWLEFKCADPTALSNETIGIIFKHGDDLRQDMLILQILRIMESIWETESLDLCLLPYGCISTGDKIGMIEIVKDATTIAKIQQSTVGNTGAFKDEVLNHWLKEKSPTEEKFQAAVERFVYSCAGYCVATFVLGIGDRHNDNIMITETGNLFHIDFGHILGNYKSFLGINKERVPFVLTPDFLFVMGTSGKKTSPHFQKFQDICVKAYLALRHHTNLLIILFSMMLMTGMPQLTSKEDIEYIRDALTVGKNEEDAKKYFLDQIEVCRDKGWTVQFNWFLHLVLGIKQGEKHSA
Procedure: Promega ADP-Glo Max assay kit (Cat. No. V7002) was utilized to determine IC50 values for α, β, δ and γ isoforms of human Class I PI3 kinases (Millipore). Samples of kinase (20 nM α or δ, 40 nM β or γ isoform) were incubated with compound for 15 minutes at room temperature in reaction buffer (15 mM HEPES pH 7.4, 20 mM NaCl, 1 mM EGTA, 0.02% Tween 20, 10 mM MgCl2, 0.2 mg/mL bovine-γ-globulins) followed by addition of ATP/diC8-PtdInsP mixture to give final concentrations of 3 mM ATP and 500 uM diC8-PtdInsP. Reactions were incubated at room temperature for 2 hours followed by addition of 25 uL of stop solution. After a 40-minute incubation at room temperature, 50 uL of Promega detection mix was added followed by incubation for 1 hour at room temperature. Plates were then read on Envision plate reader in luminescence mode. Data was converted to % inhibition using the following equation below:
[formula] where S is the sample luminescence, Pos is a positive control without added PI3K, Neg is the negative control without added compound. Data was then plotted as % inhibition vs compound concentration.
Certain compounds provided herein were tested in PI3-Kinase Promega Assay using procedures as described above to determine IC50 values for α, β, δ and/or γ isoforms.

[4] = target: p110 δ (RAJI cells) (Homo sapiens (Human), UniProt O00329); test: PI3K-δ selective cellular assay: phospho-AKT in anti-human IgM stimulated RAJI cells; assay type: cell-based; conditions: serum-starved RAJI cells stimulated with anti-human IgM
Description: A compound's ability in selectively inhibiting PI3K-δ can be assessed using RAJI cells, i.e., B lymphocyte cells derived from lymphoma patients. Briefly, serum-starved RAJI cells are stimulated with anti-human IgM, thereby causing signaling through the B-cell receptors, as described in, for example, He et al., Leukemia Research (2009) 33: 798-802. B-cell receptor signaling is important for the activation, differentiation, and survival of B cells and certain B-cell derived cancers. Reduction of phospho-AKT is indicative of compounds that may inhibit B-cell proliferation and function in certain diseases. […] Certain compounds provided herein were tested in RAJI cell model using procedures as described above.

[5] = target: human Class I PI3 kinase δ (Homo sapiens (Human), UniProt O00329); test: PI3-Kinase Promega ADP-Glo Max assay, δ isoform; assay type: biochemical; conditions: 20 nM kinase, 3 mM ATP, 500 uM diC8-PtdInsP; read-out: Promega δ PI3K IC50
[6] = target: p110 γ (RAW264.7 cells) (Mus musculus (Mouse), UniProt Q9JHG7); test: PI3K-γ selective cellular assay: phospho-AKT in C5a stimulated RAW264.7 macrophages; assay type: cell-based; conditions: serum-starved RAW264.7 cells stimulated with C5a
Sequence of p110 γ (RAW264.7 cells) (Q9JHG7 whole entry): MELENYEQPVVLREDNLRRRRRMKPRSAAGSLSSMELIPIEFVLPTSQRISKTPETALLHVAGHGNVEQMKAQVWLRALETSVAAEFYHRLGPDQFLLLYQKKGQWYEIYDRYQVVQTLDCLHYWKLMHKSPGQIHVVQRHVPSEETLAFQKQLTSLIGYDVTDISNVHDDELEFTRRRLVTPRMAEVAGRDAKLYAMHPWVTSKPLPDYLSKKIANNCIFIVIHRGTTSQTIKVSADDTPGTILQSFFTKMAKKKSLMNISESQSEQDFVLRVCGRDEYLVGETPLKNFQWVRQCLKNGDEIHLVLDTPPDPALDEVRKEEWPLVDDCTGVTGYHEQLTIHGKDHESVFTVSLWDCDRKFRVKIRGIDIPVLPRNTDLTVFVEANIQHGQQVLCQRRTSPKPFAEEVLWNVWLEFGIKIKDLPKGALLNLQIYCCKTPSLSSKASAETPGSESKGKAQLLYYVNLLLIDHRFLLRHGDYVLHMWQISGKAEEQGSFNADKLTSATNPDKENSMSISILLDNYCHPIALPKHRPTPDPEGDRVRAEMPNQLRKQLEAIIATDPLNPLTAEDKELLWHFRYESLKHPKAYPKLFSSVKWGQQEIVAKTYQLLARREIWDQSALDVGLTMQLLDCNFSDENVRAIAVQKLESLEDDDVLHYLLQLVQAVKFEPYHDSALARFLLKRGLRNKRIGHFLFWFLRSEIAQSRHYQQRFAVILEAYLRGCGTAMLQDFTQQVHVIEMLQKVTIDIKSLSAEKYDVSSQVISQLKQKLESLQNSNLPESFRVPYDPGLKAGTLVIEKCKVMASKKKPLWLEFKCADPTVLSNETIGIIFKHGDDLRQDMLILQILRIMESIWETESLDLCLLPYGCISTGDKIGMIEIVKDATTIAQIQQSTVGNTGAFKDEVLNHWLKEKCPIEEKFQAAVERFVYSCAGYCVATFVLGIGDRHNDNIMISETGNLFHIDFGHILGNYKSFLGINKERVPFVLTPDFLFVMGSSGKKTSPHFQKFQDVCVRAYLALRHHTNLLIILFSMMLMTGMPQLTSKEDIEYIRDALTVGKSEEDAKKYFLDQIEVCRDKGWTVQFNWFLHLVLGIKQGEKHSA
Procedure: Certain compounds provided herein were tested in RAW 264.7 cell model using procedures as described above.

Sequence of human Class I PI3 kinase β (P42338 whole entry, looked up, canonical isoform): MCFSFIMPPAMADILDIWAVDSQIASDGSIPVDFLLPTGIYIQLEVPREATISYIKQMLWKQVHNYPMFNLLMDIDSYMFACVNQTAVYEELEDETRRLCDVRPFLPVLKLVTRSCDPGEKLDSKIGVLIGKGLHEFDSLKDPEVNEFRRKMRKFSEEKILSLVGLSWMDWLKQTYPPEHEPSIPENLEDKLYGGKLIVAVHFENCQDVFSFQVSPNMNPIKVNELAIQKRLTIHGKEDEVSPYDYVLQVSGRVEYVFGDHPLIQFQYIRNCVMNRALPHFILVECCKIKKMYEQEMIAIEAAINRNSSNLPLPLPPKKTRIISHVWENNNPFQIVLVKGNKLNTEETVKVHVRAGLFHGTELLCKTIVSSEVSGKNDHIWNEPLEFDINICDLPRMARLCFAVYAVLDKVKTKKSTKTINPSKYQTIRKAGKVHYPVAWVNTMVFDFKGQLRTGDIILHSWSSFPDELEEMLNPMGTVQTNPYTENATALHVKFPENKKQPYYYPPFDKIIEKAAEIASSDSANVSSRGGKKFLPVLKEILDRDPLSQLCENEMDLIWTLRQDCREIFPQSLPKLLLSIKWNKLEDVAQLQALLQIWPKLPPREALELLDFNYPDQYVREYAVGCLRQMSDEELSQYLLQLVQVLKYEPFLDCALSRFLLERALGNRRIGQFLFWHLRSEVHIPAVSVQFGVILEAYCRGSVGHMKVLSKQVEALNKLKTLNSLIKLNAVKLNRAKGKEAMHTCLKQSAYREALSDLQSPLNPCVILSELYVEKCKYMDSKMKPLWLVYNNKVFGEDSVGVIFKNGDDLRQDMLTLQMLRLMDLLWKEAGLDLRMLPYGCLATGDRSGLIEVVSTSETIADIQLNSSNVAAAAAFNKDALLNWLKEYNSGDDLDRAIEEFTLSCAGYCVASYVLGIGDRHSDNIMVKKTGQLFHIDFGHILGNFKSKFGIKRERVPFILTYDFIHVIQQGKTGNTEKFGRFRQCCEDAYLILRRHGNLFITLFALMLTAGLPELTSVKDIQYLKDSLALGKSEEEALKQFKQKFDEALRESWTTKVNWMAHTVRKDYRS
Sequence of human Class I PI3 kinase β (P27986 whole entry partner, looked up, canonical isoform): as the sequence (P27986 whole entry partner, canonical isoform) above

Row | SMILES | IC50 [1] [nM] | IC50 [2] [nM] | IC50 [3] [nM] | IC50 [4] [nM] | IC50 [5] [nM] | IC50 [6] [nM]
1 | C[C@H](NC(=O)c1c(N)nn2cccnc12)c1cc2cccc(Cl)c2c(=O)n1CCc1noc(C(C)(C)C)n1 [Compound 64] | 1000 to 10000 | 1000 to 10000 | 1000 to 10000 | 100 to 500 | 1000 to 10000 | 100 to 500
2 | C[C@H](NC(=O)c1c(N)nn2cccnc12)c1nc2c(Cl)cccc2c(=O)n1-c1ccccc1 [Compound 87] | 1000 to 10000 | 1000 to 10000 | 1000 to 10000 | 100 to 500 | 1000 to 10000 | 100 to 500
3 | C[C@H](NC(=O)c1c(N)nn2cccnc12)c1cc2cccc(Cl)c2c(=O)n1Cc1nnn[nH]1 [Compound 17] | 1000 to 10000 | 1000 to 10000 | 100 to 500 | 1000 to 10000 | 1000 to 10000 | 500 to 1000
4 | C[C@H](NC(=O)c1nccnc1N)c1nc2cccc(Cl)c2c(=O)n1-c1ccc(F)cc1 [Compound 46] | 1000 to 10000 | 1000 to 10000 | 100 to 500 | 1 to 10 | 1000 to 10000 | 10 to 100
5 | C[C@H](NC(=O)c1c(N)nn2cccnc12)c1cc2cccc(Cl)c2c(=O)n1-c1ccccc1S(C)(=O)=O [Compound 83] | 1000 to 10000 | 1000 to 10000 | 1000 to 10000 | 1000 to 10000 | 1000 to 10000 | 500 to 1000
6 | C[C@H](NC(=O)c1c(N)nn2cccnc12)c1cc2cccc(CC(=O)C(C)(C)C)c2c(=O)n1-c1ccccc1 [Compound 94] | 1000 to 10000 | 1000 to 10000 | 1000 to 10000 | 500 to 1000 | 1000 to 10000 | 100 to 500
7 | C[C@H](NC(=O)c1c(N)nn2cccnc12)c1nc2cccc(Cl)c2c(=O)n1-c1ccc(F)c(F)c1 [Compound 91] | 1000 to 10000 | 1000 to 10000 | 500 to 1000 | 100 to 500 | 1000 to 10000 | 10 to 100
8 | C[C@H](NC(=O)c1c(N)nn2cccnc12)c1cc2cccc(OCc3cnn(C)c3)c2c(=O)n1-c1ccccc1 [Compound 67] | 1000 to 10000 | 1000 to 10000 | 500 to 1000 | 1000 to 10000 | 1000 to 10000 | 10 to 100
9 | Cc1cccc(-n2c([C@H](C)NC(=O)c3c(N)nn4cccnc34)cc3cccc(Cl)c3c2=O)c1 [Compound 74] | 1000 to 10000 | 1000 to 10000 | 100 to 500 | 10 to 100 | 500 to 1000 | 10 to 100
10 | CCn1cc(-c2cccc3cc([C@H](C)NC(=O)c4c(N)nn5cccnc45)n(-c4ccccc4)c(=O)c23)cn1 [Compound 5] | 1000 to 10000 | 1000 to 10000 | 100 to 500 | 100 to 500 | 1000 to 10000 | 10 to 100
11 | C[C@H](NC(=O)c1c(N)nn2cccnc12)c1cc2cccc(Cl)c2c(=O)n1-c1ccccc1NS(C)(=O)=O [Compound 78] | 1000 to 10000 | 1000 to 10000 | 100 to 500 | 100 to 500 | 1000 to 10000 | 10 to 100
12 | C[C@H](NC(=O)c1c(N)nn2cccnc12)c1cc2cccc(Cl)c2c(=O)n1CCc1nnn[nH]1 [Compound 16] | 1000 to 10000 | 1000 to 10000 | 10 to 100 | 1000 to 10000 | 1000 to 10000 | 500 to 1000
13 | C[C@H](NC(=O)c1nccnc1N)c1cc2cccc(C(F)(F)F)c2c(=O)n1-c1ccccc1 [Compound 52] | 1000 to 10000 | 1000 to 10000 | 500 to 1000 | 10 to 100 | 500 to 1000 | 10 to 100

More lines, now with the values ahead:

Row | IC50 [1] [nM] | IC50 [2] [nM] | IC50 [3] [nM] | IC50 [4] [nM] | IC50 [5] [nM] | IC50 [6] [nM] | SMILES
14 | 500 to 1000 | 1000 to 10000 | 1000 to 10000 | 10 to 100 | 1000 to 10000 | 100 to 500 | C[C@H](NC(=O)c1c(N)nn2cccnc12)c1cc2cccc(Cl)c2c(=O)n1CCc1nnn(C)n1 [Compound 56]
15 | 100 to 500 | 1000 to 10000 | 100 to 500 | 10 to 100 | 500 to 1000 | 100 to 500 | C[C@H](NC(=O)c1c(N)nn2cccnc12)c1cc2cccc(Cl)c2c(=O)n1-c1cccc(NS(C)(=O)=O)c1 [Compound 79]
16 | 1000 to 10000 | 1000 to 10000 | 500 to 1000 | 10 to 100 | 1000 to 10000 | 10 to 100 | Cc1ccnc2c(C(=O)N[C@@H](C)c3cc4cccc(Cl)c4c(=O)n3-c3ccccc3)c(N)nn12 [Compound 82]
17 | 1000 to 10000 | 1000 to 10000 | 1000 to 10000 | 1000 to 10000 | 1000 to 10000 | 100 to 500 | C[C@H](NC(=O)c1c(N)nn2cccnc12)c1cc2cccc(OCC(F)(F)F)c2c(=O)n1-c1ccccc1 [Compound 86]
18 | 500 to 1000 | 1000 to 10000 | 500 to 1000 | 100 to 500 | 1000 to 10000 | 100 to 500 | C[C@H](NC(=O)c1c(N)nn2cccnc12)c1cc2cccc(Cl)c2c(=O)n1-c1cccc(S(C)(=O)=O)c1 [Compound 77]
19 | 1000 to 10000 | 1000 to 10000 | 1000 to 10000 | 100 to 500 | 1000 to 10000 | 10 to 100 | CC(C)C(=O)Cc1cccc2cc([C@H](C)NC(=O)c3c(N)nn4cccnc34)n(-c3ccccc3)c(=O)c12 [Compound 65]
20 | 500 to 1000 | 1000 to 10000 | 500 to 1000 | 100 to 500 | 1000 to 10000 | 10 to 100 | C#CCCn1c([C@H](C)NC(=O)c2c(N)nn3cccnc23)cc2cccc(Cl)c2c1=O [Compound 62]
21 | 100 to 500 | 1000 to 10000 | 500 to 1000 | 100 to 500 | 1000 to 10000 | 500 to 1000 | C[C@H](NC(=O)c1c(N)nn2cccnc12)c1cc2cccc(Cl)c2c(=O)n1CCc1cnn[nH]1 [Compound 63]
22 | 1000 to 10000 | 1000 to 10000 | 100 to 500 | 100 to 500 | 1000 to 10000 | 10 to 100 | C[C@H](NC(=O)c1c(N)nn2cccnc12)c1cc2cccc(-c3cnn(CC#N)c3)c2c(=O)n1-c1ccccc1 [Compound 48]
23 | 1000 to 10000 | 1000 to 10000 | 1000 to 10000 | 10 to 100 | 1000 to 10000 | 100 to 500 | Cc1noc(CCn2c([C@H](C)NC(=O)c3c(N)nn4cccnc34)cc3cccc(Cl)c3c2=O)n1 [Compound 18]
24 | 100 to 500 | 1000 to 10000 | 10 to 100 | 10 to 100 | 100 to 500 | 100 to 500 | CCS(=O)(=O)NCCn1c([C@H](C)NC(=O)c2c(N)nn3cccnc23)cc2cccc(Cl)c2c1=O [Compound 61]
25 | 10 to 100 | 500 to 1000 | 10 to 100 | 1 to 10 | 100 to 500 | 100 to 500 | C[C@H](NC(=O)c1c(N)nn2cccnc12)c1cc2cccc(Cl)c2c(=O)n1CCCNS(C)(=O)=O [Compound 53]
26 | 500 to 1000 | 1000 to 10000 | 500 to 1000 | 10 to 100 | 1000 to 10000 | 1000 to 10000 | C[C@H](NC(=O)c1c(N)nn2cccnc12)c1cc2cccc(Cl)c2c(=O)n1CCc1ncn[nH]1 [Compound 20]
27 | 100 to 500 | 1000 to 10000 | 100 to 500 | 100 to 500 | 1000 to 10000 | 100 to 500 | C[C@H](NC(=O)c1c(N)nn2cccnc12)c1cc2cccc(Cl)c2c(=O)n1CCCS(C)(=O)=O [Compound 57]
28 | 500 to 1000 | 500 to 1000 | 10 to 100 | 10 to 100 | 100 to 500 | 1 to 10 | C[C@H](NC(=O)c1c(N)nn2cccnc12)c1cc2cccc(Cl)c2c(=O)n1CCS(=O)(=O)N(C)C [Compound 58]
29 | 500 to 1000 | 1000 to 10000 | 10 to 100 | 10 to 100 | 1000 to 10000 | 100 to 500 | C[C@H](NC(=O)c1c(N)nn2cccnc12)c1cc2cccc(Cl)c2c(=O)n1CCNS(C)(=O)=O [Compound 13]

Source: patent US9751888B2, “Heterocyclic compounds and uses thereof” (Infinity Pharmaceuticals, Inc., priority 2013, dated 2017)
